Source: patent US11147792B2, “Inhibitors of microbially induced amyloid” (Axial Therapeutics, Inc, priority 2017, dated 2021)
“Also recorded” adds a separate entry of the source. Read-outs that look alike come from different tables or passages of the source.

Assays:
human α-synuclein = molecular target: T1, human α-synuclein (Homo sapiens, UniProt P37840); experiment: In vitro Thioflavin T assay of α-synuclein aggregation; format: biochemical; details: compounds at 50 μM, 50 μM α-synuclein, ThT fluorescence at 40 hours
T1 construct: made in house; host or cells: E. coli
Method: In Vitro Thioflavin T Assay to Determine the Effects of Compounds on α-Synuclein Aggregation.
The ammonium sulfate pellet was washed with an equal volume of 100 mM ammonium acetate in ethanol, pelleted via centrifugation, washed twice with ethanol, dried overnight, resuspended in 10 mM Tris pH 7.4, and passed through a 50 kDa cut-off column. The assay was conducted in 96-well black microplates with a single 2 mm bead in each well, 40 μM ThioflavinT, 1% DMSO, 50 μM α-synuclein, 100 mM sodium chloride, 9.3 mM potassium phosphate pH 7.3, 4.6 mM Tris pH 7.4 (added as the solvent for α-synuclein or independently for controls lacking α-synuclein), and compounds at 1 μM or 50 μM. […] Readings were performed hourly for up to 73 hours. The effect of compounds on α-synuclein aggregation in the assay was determined with data from 40 hours, following the plateau of the fluorescent signal in the untreated (no compound) control wells containing α-synuclein. Fluorescence values for each compound with α-synuclein were first adjusted by subtracting the average fluorescence of the compound in the absence of α-synuclein.

[1] = tested on: Thy1-αSyn mice (ASO) mono-colonized with WT E. coli; experiment: Motor function of germ-free Thy1-αSyn (ASO) mice mono-colonized with WT E. coli, EGCG in drinking water; format: in vivo, mouse; details: EGCG ad lib in drinking water vs vehicle
Method: Evidence has linked unregulated α-synuclein expression in humans to a higher risk of PD, providing an epidemiological foundation for the Thy1-α-synuclein mouse model. Defects in coordinated motor tasks become evident at 12 weeks of age. Motor function is measured via four tests: beam traversal, pole descent, nasal adhesive removal, and hind limb clasping reflexes, as previously validated in this model (described in Fleming et al., J. Neurosci. 24, 9434-9440 (2004), and Sampson et al., Cell 167(6):1469-1480 (2016) the content of which are hereby expressly incorporated by reference in its entirety). […] Removal of an adhesive from the nasal bridge, a test of fine motor control, is also impaired in SPF-ASO mice compared to SPF-WT mice, as is the hind limb clasping reflex, a measure of striatal dysfunction.
(§1) Germ-free Thy1-αSyn mice (ASO) mono-colonized with WT E. coli at 5-6 weeks of age, and given water alone (Vehicle: Veh) or treated with EGCG ad lib in drinking water (+EGCG). RNA was extracted from fecal pellets and csgA expression quantified by qRT-PCR, relative to rrsA. FIG. 1C is a graph showing fold-change in csgA expression. Motor function was assessed at 15-16 weeks of age by quantifying beam traversal time (FIG. 1D), pole descent time (FIG. 1E), nasal adhesive removal time (FIG. 1F), hindlimb clasping score (FIG. 1G), and wire hang tests (FIG. 1H). Time to cross, time to descent, time to remove, and hindlimb score were lower in the EGCG-treated mice, while time to fall was higher in the EGCG-treated mice compared to vehicle treated control.
Inhibition of functional amyloid formation was studied. Germ-free Thy1-αSyn mice (ASO) were monocolonized with wild-type E. coli and treated with water alone (Vehicle, Veh) or given EGCG ad lib in drinking water (+EGCG). Motor function was assessed at 10, 12, and 15 weeks of age by quantifying beam traversal time (FIG. 5A), pole descent time (FIG. 5B), nasal adhesive removal time (FIG. 5C), hindlimb clasping score (FIG. 5D), and wire hang tests (FIG. 5E). FIG. 5F depicts principal component analysis of compiled motor scores from FIGS. 5A-D. Thin sections of brain were stained for Iba1 (microglia) and morphological characteristics quantified of microglia resident in the striatum (FIGS. 5G-H) and substantia nigra (FIGS. 5I-J). N=10-11 (FIGS. 5A-F), n=3 (FIGS. 5G-J) (averaged from 5-7 cells for branching). Bars represent the mean and standard error. Time courses analyzed by two-way ANOVA, with Sidak post-hoc test for between group comparisons indicated above individual time points, and brackets indicating significance between treatments. Data in (FIGS. 5G-J) analyzed by two-tailed t-test. *p≤0.05; **p≤0.01; ****p≤0.0001.

[2] = tested on: αSyn aggregates in brain of Thy1-αSyn mice (ASO); experiment: Brain αSyn aggregates in germ-free ASO mice mono-colonized with WT E. coli, EGCG in drinking water; format: in vivo, mouse; details: EGCG-treated vs vehicle
Method: as §1, with “control. […]” for “control.”
FIGS. 1L-M show quantification of insoluble αSyn fibrils in the striatum (FIG. 1L) and ventral midbrain (FIG. 1M) by dot blot assay. Thin sections of brain were stained for Iba1 (microglia), 3D cellular reconstructions generated, and morphological characteristics quantified from microglia resident in the striatum (FIG. 1N) and substantia and nigra (FIG. 1O). n=3 (FIGS. 1A, 1B, 1N, 1O), n=8 (FIG. 1C), n=10-11 (FIGS. 1D-I), n=4 (FIGS. 1L-M). […] Data analyzed by one-way ANOVA with Tukey post-hoc test for FIG. 1A, two-tailed Mann-Whitney for FIGs. […]

O=C(O[C@@H]1Cc2c(O)cc(O)cc2O[C@@H]1c1cc(O)c(O)c(O)c1)c1cc(O)c(O)c(O)c1 [EGCG, epigallocatechin gallate]
inhibition at 50 µM (human α-synuclein; read-out: Inhibition of Aggregation αSyn): 99% | inhibition at 50 µM (human α-synuclein; read-out: Inhibition of Aggregation αSyn (compound activity range)): > 60% | progressive motor deficits exacerbated by E. coli (motor performance) [1]: successfully dampens progressive motor deficits | beam traversal time (time to cross) ([1]; 15-16 weeks of age): lower | hindlimb clasping score ([1]; 15-16 weeks of age): lower | nasal adhesive removal time (time to remove) ([1]; 15-16 weeks of age): lower | pole descent time (time to descent) ([1]; 15-16 weeks of age): lower | wire hang test (time to fall) ([1]; 15-16 weeks of age): higher | αSyn aggregation in striatum and midbrain [2]: preventing αSyn aggregation in both the striatum and midbrain | Proteinase K resistant αSyn aggregates in the substantia nigra ([2]; immunofluorescence microscopy): lower; also recorded: Fewer
